Assay results as given in patent US20110092488A1, “Quninoline Methanol Compounds for the Treatment and Prevention of Parasitic Infections” (priority 2005, published 2011).
In brackets after ≈: the same amount, converted by molar mass. Entries after “also recorded” stand apart in the source; their conditions may differ.

Experiments:
P. falciparum TM91C235 = test: In vitro antimalarial activity against P. falciparum TM91C235; format: cell-based, Plasmodium falciparum
Protocol: (§1) The in vitro activities of AAQMs against P. falciparum strains W2, D6, TM91C235 and TM90C2A were evaluated using the method of Desjardins et al. as modified by Milhous et al. W2 is chloroquine resistant and mefloquine sensitive, D6 is chloroquine sensitive but naturally less susceptible to mefloquine, TM91C235 is resistant to mefloquine, chloroquine and pyrimethamine as is TM90C2A, however this latter parasite is a two pfmdr1 copy strain. We routinely run mefloquine in this screen as a control to ensure assay validity.

[1] = system: primary rat forebrain neurons; test: Neurocytotoxicity assay (MTT); conditions: read-out: Neurotoxicity ranking (IC50 in μM); approximate IC50 from screen at 10, 100 and 1000 μM, MTT
Protocol: The neurocytotoxicity assay of AAQMs was conducted as per Dow et al.; The antimalarial potential of 4-quinolinecarbinolamines may be limited due to neurotoxicity and cross-resistance in mefloquine-resistant Plasmodium falciparum strains; Chemother. (48) 2624-2632 (2004) and is incorporated herein, by reference. This assay utilizes primary rat forebrain neurons and is a multi-endpoint screen. […] The AAQMs outlined in Table 1 were screened at 10, 100 and 1000 μM in triplicate, and the reduction in viability observed was determined using the 3-(4,5-dimethylthiazol-2-yl)-2,5-diphenyltetrazolium bromide (MTT) assay as per Dow et al., discussed above. Approximate IC50 values were calculated on the basis of the level of inhibition observed at each concentration. Full dose response assays were run for mefloquine and WR069878 with two fold dilutions (n=6 wells per dilution) and 11 dilutions for each drug. IC50s were calculated using Prism. Each time the assay is conducted, 20 μM mefloquine is included, as a control. […] Assays are re-run if the loss of viability induced by mefloquine is <40% or >60%. Neuroprotection experiments with 6,7-dinitroquinoxaline-2,3-dione (DNQX) and magnesium were performed as per Dow et al.; Transcriptional profiling of mefloquine-induced disruption of calcium homeostasis in neurons in vitro; Genomics (86)539-550 (2005), which is incorporated by reference, herein. Neurons were exposed to DNQX (100 μM) or magnesium (12 mM) for 5 min, followed by mefloquine (25 μM) or WR069878 (250 μM) for 20 min after which reduction in cell viability was determined. […] DNQX is an inhibitor of non-N-methyl-D-aspartate (NMDA) receptors, whilst magnesium inhibits the functioning of the inositol 1,4,5-trisphosphate (IP3)-mediated calcium signaling pathway at several points. The effects of mefloquine and WR069878 on neuronal calcium homeostasis were assessed utilizing confocal microscopy as per Dow et al, as discussed in Antimicrob Agents Chemother. (48)2624-2632 (2004), cited above, and incorporated by reference, herein. Briefly neurons were loaded with calcium sensitive dye Fluo 3-A for 1 h and were washed prior to image experiments. Neurons were ‘spiked’ with 100 μM mefloquine or WR069878. Subsequent changes in neuronal calcium homeostasis were recorded as fluctuations in the emitted fluorescence of fluo-3-complexed calcium at 530 nm (excitation was 488 nm). Sequential image scans of fields containing 5-25 neurons were used to construct temporal profiles. Scans were made at 10 s intervals. Fluorescence levels for each neuron were normalized 12 to time zero values. Data were then pooled from three and five independent experiments for mefloquine and WR069878 respectively.

[2] = system: FVO strain of P. falciparum; test: Efficacy in P. falciparum-challenged Aotus monkeys; format: in vivo, Plasmodium falciparum in Aotus lemurinus lemurinus; conditions: 10 mg/kg/day x7 oral; groups of two; Cure = parasite free 90 days; R = average day of recrudescence; Failure = rescued with mefloquine
Protocol: (§2) The P. berghei-mouse efficacy data were obtained from the WRAIR chemical information system (subcutaneous testing) or from recent tests conducted at AFRIMS, Thailand or at the University of Miami using a modified version of the Thompson test. Groups of five mice were inoculated through i.p. injection on day 0 (usually with 1×106 P. berghei-parasitized erythrocytes). The drugs in Table 1 were administered either subcutaneously or orally for three days (usually on days 3-5) at doses of 1.25-160 mg/kg in two to four fold increments. Cure was defined as survival until day 60 (subcutaneous dosing) or day 31 post-treatment (oral dosing). […] The minimum effective dose was the lowest dose level that cured at least one of five mice. The Aotus studies were performed according to Obaldia; Detection of Klebsiella pnuumoniae antibodies in Aotus l. lemurinus (Panamanian owl monkey) using an enzyme linked immunosorbent assay (ELIA) test; Lab Anim (25)133-141 (1991) and Obaldia et al., WR 238605, chloroquine, and their combinations as blood schizonticides against a chloroquine-resistant strain of Plasmodium vivax in Aotus monkeys; Am. J. Trop. Med. Hyg. (56)508-510 (1997), which are incorporated by reference, herein. Groups of two Aotus lemurinus 6 lemurinus of the karyotype VIII or IX (27) male and female monkeys with weights ranging from 742-970 g were inoculated with 5×10^6 parasites of either the FVO strain of P. falciparum or the AMRU1 strain of P. vivax. Both of these strains are chloroquine resistant. […] Monkeys were examined and thick Giemsa-stained blood smears were prepared and enumerated daily (17) to monitor the course of infection. […] In some instances, a high dose of the test drug was used to retreat monkeys instead of the mefloquine rescue. Monkeys are considered cured if they are parasite free 90 days post treatment. […] Plasma samples were taken from the monkeys in some studies for quantification of metabolites. Additional blood samples were taken as appropriate for complete blood counts and serum chemistry. Research was conducted in compliance with the Animal Welfare Act and other federal statutes and regulations relating to animals and experiments involving animals and adheres to principles stated in the Guide for the Care and Use of Laboratory Animals, NRC Publication, 1996 edition (34).

[3] = Aotus, 10 mg/kg/day oral x7
Protocol: as §2

[4] = Protocol: The AAQMs indicated in Table 1 (10 μM) were added to a mixture containing an NADPH-regenerating buffer (1.25 mM β-NADP+, 3.3 mM glucose-6-phosphate, and 3.3 mM MgCl2) and 0.5 mg/ml pooled human liver microsomes to a final volume of 125 μl. The mixtures were incubated for 5 minutes at 37° C. and the reactions were initiated by adding 25 μl glucose-6-phosphate dehydrogenase to a final concentration of 1 unit/ml. The reactions were maintained at 37° C. until they were terminated by the addition of an equal volume of 100% ice cold acetonitrile at 0, 10, 30, 60, and 120 minutes. Samples were centrifuged to pellet the proteins and the supernatant was analyzed by LC-MS/MS in duplicate using fast LC gradient or isocratic methods. AAQM concentrations were quantified with external calibration, using plots of response v. amount. Chromatograms were analyzed using the mass spectrometry software Xcalibur® QuanBrowser (for ThermoFinnigan® instruments) or MassLynx® (for Waters® instruments). Concentrations of AAQMs remaining at each time point were calculated using the unknown peak areas and corresponding calibration curves. In order to calculate the half-life, a first-order rate of decay was assumed. […] All reagents were purchased from Sigma except for the microsomes, which were obtained from BD Gentest®. For metabolite identification, samples were prepared as described above with human liver microsomes. Additional samples were prepared with for each AAQM using mouse, rat, and rhesus monkey liver microsomes. Samples were separated using an LC gradient method and analyzed by full scan LC-MS and LC-MS/MS. […] These MS/MS data were also used to do preliminary structural elucidation. […] The relative percentage of formation of each metabolite was determined in a semi-quantitative manner since standards of each metabolite were not available. Peak areas of each detected AAQM metabolite and the internal standard were determined, and their ratios were calculated as metabolite area/internal standard area. The percent formation of each metabolite was determined as the area ratio divided by the sum of all the metabolite area ratios.
P. falciparum D6 [5] = test: Isobologram analysis azithromycin and WR074086, P. falciparum D6; format: cell-based, Plasmodium falciparum; conditions: Line C FIG. 5: starting azithromycin 12500 ng/ml, WR074086 5 ng/ml
Protocol: (§3) The combined effects of azithromycin (as represented by compound 196 on the horizontal axes of FIG. 4 through 6) and WR074086 (as represented by compound 14885 on vertical axes of FIGS. 4 through 6) against three strains of P. falciparum were investigated using isobologram analysis. First, the IC50s of each compound were determined as described above.
Next, IC50s were determined with different fractional starting concentrations of each compound. For example in line C of FIG. 5, the starting concentration of azithromycin was 12500 ng/ml whereas the starting concentration of WR074086 was 5 ng/ml. Each of these starting concentrations is half of that used when each compound was tested alone. […] In the data tables, lines D-H represent other combinations of starting concentrations of each compound.
For each pair of starting concentrations for each drug, fractional inhibitory concentrations were determined using the following formula: FIC=IC50 in combination/IC50 alone.
The FICs for the eight tests are plotted as indicated in FIG. 4 through FIG. 6 for each of three P. falciparum strains. Graphs of this type are called isobolograms and additivity is represented by an overall FIC SUM of 1, as represented by the straight line joining the two axes. A potentiative effect is represented by a concave curve below the straight line, since IC50s in combination are lower than expected. Antagonism is represented by a convex curve above the straight line, since IC50s in combination are higher than expected.

P. falciparum D6 [6] = test: In vitro antimalarial activity against P. falciparum D6; format: cell-based, Plasmodium falciparum; conditions: Plasmodium falciparum, D6; FIG. 5; read-out: IC50 against P. falciparum D6, compound alone
Protocol: as §1, §3

[7] = system: Plasmodium falciparum malaria; conditions: P. falciparum malaria, South East Asia; WR030090: field trials; cited from earlier work

CCCC[N+]([O-])(CCCC)CC(O)c1cc(-c2ccc(Cl)cc2)nc2c(Cl)cc(Cl)cc12 (stereo not shown) [WR098656]
Activity against P. falciparum TM91C235 (IC50 in ng/ml) (P. falciparum TM91C235): 3.3 ng/mL
IC50 [1]: 60 µM

CCCCN(CCCC)CC(O)c1cc(-c2ccc(I)cc2)nc2c(Cl)cc(Cl)cc12 (stereo not shown) [WR106752]
Activity against P. falciparum TM91C235 (IC50 in ng/ml) (P. falciparum TM91C235): 8.0 ng/mL

CCCCNCC(O)c1cc(-c2ccc(Cl)cc2)nc2c(C)cc(C)cc12 (stereo not shown) [WR176399]
Outcome in Aotus [2]: cleared parasitemias, but recrudescence was subsequently observed; also recorded: Clear (R21)
Mean peak concentration [3]: 28 ng/mL
Plasma conc on day 1 (ng/ml) 2 h ([3]; day 1, 2 h): 27 ng/mL
Plasma conc on day 1 (ng/ml) 24 h ([3]; day 1, 24 h): 2.7 ng/mL
Plasma conc. on day 7 (ng/ml) 2 h ([3]; day 7, 2 h): 30 ng/mL
Plasma conc. on day 7 (ng/ml) 24 h ([3]; day 7, 24 h): 3.8 ng/mL
Activity against P. falciparum TM91C235 (IC50 in ng/ml) (P. falciparum TM91C235): 0.48 ng/mL
TM91C235 IC90 (P. falciparum TM91C235; Table 2): <0.5 ng/mL
IC50 [1]: 600 µM
Route of metabolic transformation [4]: hydroxylation

CCCCCCN(CCCCCC)CC(O)c1cc(-c2ccccc2)nc2c(Cl)cccc12 (stereo not shown) [WR211679]
Activity against P. falciparum TM91C235 (IC50 in ng/ml) (P. falciparum TM91C235): 7.7 ng/mL

CCCCN(CCCC)CC(O)c1cc(-c2ccc(Cl)cc2)nc2c(C)cccc12 (stereo not shown) [WR211925]
Activity against P. falciparum TM91C235 (IC50 in ng/ml) (P. falciparum TM91C235): 5.2 ng/mL
IC50 [1]: 600 µM

CC[C@H]1OC(=O)[C@H](C)[C@@H](O[C@H]2C[C@@](C)(OC)[C@@H](O)[C@H](C)O2)[C@H](C)[C@@H](O[C@@H]2O[C@H](C)C[C@H](N(C)C)[C@H]2O)[C@](C)(O)C[C@@H](C)CN(C)[C@H](C)[C@@H](O)[C@]1(C)O [azithromycin, reference compound]
FIC (IC50 in combination/IC50 alone) (P. falciparum D6 [5]): 0.249
IC50 (P. falciparum D6 [6]): 7230 ng/mL (≈ 9.66 µM)

CCN(CC)CCCC(C)Nc1ccnc2cc(Cl)ccc12 (stereo not shown) [chloroquine]
Cure rate [7]: 11-20%
